In patent US12018023B2 (NERVIANO MEDICAL SCIENCES S.R.L., priority 2018, dated 2024):
One block for each compound: values may come before it.

What was measured:
[1] = biological target: T1, IDH1^R132H homodimer enzyme (Homo sapiens, UniProt O75874, R132H); experiment: NADPH depletion assay, IDH1 R132H; assay type: biochemical
T1 construct: purchased not specified
Method in brief: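 IDH1 R132H enzyme (8 nM as diluted) in Tris-HCl pH 7.6 with 10 mM MgCl2, 0.001% Triton X-100 and 4 mM β-mercaptoethanol is preincubated 15 min at RT with compound. Substrate mix (12 uM NADPH, 3.4 mM α-ketoglutarate) is added for 60 min; remaining NAD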

IDH2^R172K = biological target: T2, IDH2^R172K (Homo sapiens, UniProt P48735, R172K); experiment: NADPH depletion assay, IDH2 R172K; assay type: biochemical
T2 construct: purchased not specified
T2 sequence (P48735 40-452 R172K): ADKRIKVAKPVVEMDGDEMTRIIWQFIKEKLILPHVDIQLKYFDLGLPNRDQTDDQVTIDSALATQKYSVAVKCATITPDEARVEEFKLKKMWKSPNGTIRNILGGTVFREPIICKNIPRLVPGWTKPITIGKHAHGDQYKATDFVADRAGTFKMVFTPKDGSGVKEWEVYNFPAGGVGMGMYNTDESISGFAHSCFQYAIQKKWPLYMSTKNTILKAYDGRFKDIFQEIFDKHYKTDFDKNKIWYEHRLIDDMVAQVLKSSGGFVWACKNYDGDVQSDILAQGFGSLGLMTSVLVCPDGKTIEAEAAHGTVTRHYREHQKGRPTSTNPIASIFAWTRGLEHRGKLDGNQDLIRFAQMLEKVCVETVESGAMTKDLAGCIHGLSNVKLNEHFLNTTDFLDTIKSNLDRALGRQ
Method in brief: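 This NADPH depletion assay measures NADPH left after conversion of alpha-ketoglutarate (0.55 mM final) by 16 nM IDH2 R172K over 60 min at room temperature, after a 15 min compound preincubation in pH 7.6 Tris buffer. Substrate mix held 12 μM NADPH. Diaphorase/resazurin gave the fluorescence read-out at 544/590 nm.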

U87MG_IDH1R132H = experiment: Cellular 2-HG production assay, U87-MG-IDH1 R132H; assay type: cell-based; conditions: inhibition of 2HG production, 72 hr incubation, LC-MS/MS
Protocol: Cell lines HT-1080 (commercially available) and U87-MG-IDH1^R132H (obtained in analoy to the procedure reported in J. Mol. Neurosci 2013, 50, 165-71) are maintained in E-MEM 10% FCS and incubated at 37° C. in a humidified 5% CO2 atmosphere. Stably transfected U87-MG cell lines are also supplemented with 500 μg/mL G418.
Cells are seeded into 96 well black flat bottom plates at a density of 500 cells/well in 100 μL complete medium. After 24 hr the medium is replaced with 200 uL of fresh medium and compounds (dissolved into DMSO) are administrated to the cells using D300E Digital Dispenser (Tecan).
After 72 hr of incubation 100 uL from each well are collected and used for 2HG (R(−)-2-hydroxyglutarate) quantification.
Levels of 2-HG in cell culture media are determined by LC-MS/MS. Cell supernatants (100 μL/well) are treated with 1 M aqueous trichloroacetic acid containing 130 μM of the internal standard 2-HG-d3 (20 μL/well) in a 96-well plate.
The plates are sealed, mildly vortexed for 60 minutes, centrifuged at 4,000 RPM for 15 minutes, placed in a refrigerated autosampler taking care not to shake them, and aliquots of the upper part of the samples are directly injected in the chromatographic system. Calibration standards are obtained by ten fold dilution of aqueous 2-HG stock solutions with blank cell culture medium and denatured exactly in the same way as described above for samples. Samples and standards are assayed for 2-HG by reversed phase chromatography on a C18 column eluted with aqueous 0.15% formic acid and briefly washed with 90% methanol at the end of the run. 2-HG is determined by negative ion electrospray ionization with the internal standard method on a triple quadrupole mass spectrometer monitoring the MRM transitions 147>129 (2-HG) and 150>132 (2-HG-d3). 2-HG inhibition was calculated by comparing treated versus control data using Assay Explore (Symyx) software, with IC50 determined using a sigmoidal fitting algorithm.

IDH1^R132C = biological target: T3, IDH1^R132C (Homo sapiens, UniProt O75874, R132C); experiment: NADPH depletion assay, IDH1 R132C; assay type: biochemical
T3 construct: purchased not specified
Method in brief: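 Fluorescence readout (Ex544/Em590) of NADPH left after diaphorase/resazurin addition. Alpha-ketoglutarate 0.14 mM final, enzyme 2 nM final; compound preincubation 15 min, then 60 min reaction, both at room temperature, pH 7.6 Tris buffer.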

T1 sequence (O75874 whole entry R132H): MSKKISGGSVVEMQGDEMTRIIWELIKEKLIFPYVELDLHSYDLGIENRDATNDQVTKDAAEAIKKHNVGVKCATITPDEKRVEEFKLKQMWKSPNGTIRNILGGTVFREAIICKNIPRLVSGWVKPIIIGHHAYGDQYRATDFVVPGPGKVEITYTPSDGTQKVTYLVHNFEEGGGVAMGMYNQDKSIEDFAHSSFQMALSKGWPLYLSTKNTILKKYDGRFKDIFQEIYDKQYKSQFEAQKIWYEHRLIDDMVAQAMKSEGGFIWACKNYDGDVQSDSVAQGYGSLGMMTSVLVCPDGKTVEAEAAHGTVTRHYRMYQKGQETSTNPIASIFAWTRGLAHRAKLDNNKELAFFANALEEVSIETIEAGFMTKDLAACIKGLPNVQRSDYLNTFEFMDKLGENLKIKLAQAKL
T3 sequence (O75874 whole entry R132C): as the sequence (O75874 whole entry R132H) above, with H132C counted along it

SMILES: C[C@H](Nc1ncc2ccc(=O)n(CC(C)(C)C)c2n1)c1ccc2ccccc2c1 [cpd 36, 8-(2,2-dimethylpropyl)-2-{[(1S)-1-(naphthalen-2-yl)ethyl]amino}pyrido[2,3-d]pyrimidin-7(8H)-one]
IC50 [1]: 178 nM | IC50 (IDH2^R172K): 6540 nM | IC50 (U87MG_IDH1R132H): 4040 nM

SMILES: C[C@H](Nc1ncc2ccc(=O)n(CC(C)(C)CO)c2n1)c1ccc2ccccc2c1 [cpd 38, 8-(3-hydroxy-2,2-dimethylpropyl)-2-{[(1S)-1-(naphthalen-2-yl)ethyl]amino}pyrido[2,3-d]pyrimidin-7(8H)-one]
IC50 [1]: 137 nM | IC50 (IDH1^R132C): 67 nM | IC50 (IDH2^R172K): 7510 nM | IC50 (U87MG_IDH1R132H): 2640 nM

SMILES: C[C@H](Nc1ncc2ccc(=O)n(CC(C)(C)C)c2n1)c1cc2cc(Cl)ccc2[nH]c1=O [cpd 50, 2-{[(1S)-1-(6-chloro-2-oxo-quinolin-3-yl)ethyl]amino}-8-(2,2-dimethylpropyl)pyrido[2,3-d]pyrimidin-7(8H)-one]
IC50 [1]: 68 nM | IC50 (IDH1^R132C): 38 nM | IC50 (IDH2^R172K): 2510 nM | IC50 (U87MG_IDH1R132H): 2530 nM

SMILES: C[C@H](Nc1ncc2ccc(=O)n(CC(C)(C)C)c2n1)c1ccc(C(=O)N2CCC(F)(F)CC2)cc1 [cpd 83, 2-{[(1S)-1-{4-[(4,4-difluoropiperidin-1-yl)carbonyl]phenyl}ethyl]amino}-8-(2,2-dimethylpropyl) pyrido[2,3-d]pyrimidin-7(8H)-one]
IC50 [1]: 347 nM | IC50 (IDH1^R132C): 196 nM | IC50 (IDH2^R172K): 4260 nM | IC50 (U87MG_IDH1R132H): 2060 nM

SMILES: C[C@H](Nc1ncc2ccc(=O)n(Cc3c(F)cccc3F)c2n1)c1ccc(CN2CCC(F)(F)CC2)cc1 [cpd 99, 8-(2,6-difluorobenzyl)-2-{[(1S)-1-{4-[(4,4-difluoropiperidin-1-yl)methyl]phenyl}ethyl]amino}pyrido[2,3-d]pyrimidin-7(8H)-one]
IC50 [1]: 201 nM | IC50 (IDH1^R132C): 132 nM | IC50 (IDH2^R172K): 3630 nM | IC50 (U87MG_IDH1R132H): 1380 nM

SMILES: CC(C)Cn1c(=O)ccc2cnc(N[C@@H](C)c3ccc(CN4CCC(F)(F)CC4)cc3)nc21 [cpd 104, 2-{[(1S)-1-{4-[(4,4-difluoropiperidin-1-yl)methyl]phenyl}ethyl]amino}-8-(2-methylpropyl)pyrido[2,3-d]pyrimidin-7(8H)-one]
IC50 [1]: 276 nM | IC50 (IDH1^R132C): 121 nM | IC50 (IDH2^R172K): 5130 nM | IC50 (U87MG_IDH1R132H): 1770 nM

Now from value to compound:

IC50 [1]: 334 nM | IC50 (IDH1^R132C): 218 nM | IC50 (IDH2^R172K): 5680 nM | IC50 (U87MG_IDH1R132H): 1810 nM
SMILES: C[C@H](Nc1ncc2ccc(=O)n(CC3CCC3)c2n1)c1ccc(CN2CCC(F)(F)CC2)cc1 [cpd 109, 8-(cyclobutylmethyl)-2-{[(1S)-1-{4-[(4,4-difluoropiperidin-1-yl)methyl]phenyl}ethyl]amino}pyrido[2,3-d]pyrimidin-7(8H)-one]

IC50 [1]: 367 nM | IC50 (IDH1^R132C): 282 nM | IC50 (IDH2^R172K): 5510 nM | IC50 (U87MG_IDH1R132H): 2540 nM
SMILES: C[C@H](Nc1ncc2ccc(=O)n(CC3CCCCC3)c2n1)c1ccc(CN2CCC(F)(F)CC2)cc1 [cpd 113, 8-(cyclohexylmethyl)-2-{[(1S)-1-{4-[(4,4-difluoropiperidin-1-yl)methyl]phenyl}ethyl]amino}pyrido[2,3-d]pyrimidin-7(8H)-one]

IC50 [1]: 20 nM | IC50 (IDH1^R132C): 8 nM | IC50 (U87MG_IDH1R132H): 127 nM
SMILES: CC(C)[C@H](C)n1c(=O)ccc2cnc(N[C@@H](C)c3ccc(CN4C[C@@H](C)O[C@@H](C)C4)c(F)c3)nc21 [cpd 150, 2-{[(1S)-1-(4-{[(2R,6S)-2,6-dimethylmorpholin-4-yl]methyl}-3-fluorophenyl)ethyl]amino}-8-[(2S)-3-methylbutan-2-yl]pyrido[2,3-d]pyrimidin-7(8H)-one]

IC50 [1]: 95 nM | IC50 (IDH1^R132C): 20 nM | IC50 (U87MG_IDH1R132H): 321 nM
SMILES: C[C@@H]1CN(Cc2ccc([C@H](C)Nc3ncc4ccc(=O)n(CC(C)(C)C)c4n3)c(F)c2)C[C@H](C)O1 [cpd 151, 2-{[(1S)-1-(4-{[(2R,6S)-2,6-dimethylmorpholin-4-yl]methyl}-2-fluorophenyl)ethyl]amino}-8-(2,2-dimethylpropyl)pyrido[2,3-d]pyrimidin-7(8H)-one]
